Assay results taken from PubChem BioAssay (NCI).
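Exposure lasted 48 hours, with cells grown in 96-well plates and compounds tested at five concentrations. GI50 is the concentration that inhibits growth by half. The concentration for full growth arrest is given as TGI.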

Tests used:
Assay in all cases: NCI-60 cell line screen, 48 h
[1] = tested on: 786-0 renal
[2] = tested on: A498 renal
[3] = tested on: A549 NSCLC
[4] = tested on: ACHN renal
[5] = tested on: BT-549 breast
[6] = tested on: CCRF-CEM leukemia
[7] = tested on: DU-145 prostate
[8] = tested on: EKVX NSCLC
[9] = tested on: HCC-2998 colon
[10] = tested on: HCT-116 colon
[11] = tested on: HCT-15 colon
[12] = tested on: HL-60(TB) leukemia
[13] = tested on: HOP-62 NSCLC
[14] = tested on: HOP-92 NSCLC
[15] = tested on: HS 578T breast
[16] = tested on: HT29 colon
[17] = tested on: IGROV1 ovarian
[18] = tested on: K-562 leukemia
[19] = tested on: KM12 colon
[20] = tested on: LOX IMVI melanoma
[21] = tested on: M14 melanoma
[22] = tested on: MALME-3M melanoma
[23] = tested on: MCF7 breast
[24] = tested on: MDA-MB-231 breast
[25] = tested on: MDA-MB-435
[26] = tested on: MOLT-4 leukemia
[27] = tested on: NCI-H226 lung
[28] = tested on: NCI-H23 lung
[29] = tested on: NCI-H460 lung
[30] = tested on: OVCAR-5 ovarian
[31] = tested on: OVCAR-8 ovarian
[32] = tested on: PC-3 prostate
[33] = tested on: RPMI-8226 leukemia
[34] = tested on: RXF 393 renal
[35] = tested on: SF-268 CNS
[36] = tested on: SF-295 CNS
[37] = tested on: SF-539 CNS
[38] = tested on: SK-MEL-2 melanoma
[39] = tested on: SK-MEL-28 melanoma
[40] = tested on: SK-MEL-5 melanoma
[41] = tested on: SK-OV-3 ovarian
[42] = tested on: SN12C renal
[43] = tested on: SNB-19 CNS
[44] = tested on: SNB-75 CNS
[45] = tested on: SR leukemia
[46] = tested on: SW-620 colon
[47] = tested on: T-47D breast
[48] = tested on: TK-10 renal
[49] = tested on: U251 CNS
[50] = tested on: UACC-257 melanoma
[51] = tested on: UACC-62 melanoma
[52] = tested on: CAKI-1 renal
[53] = tested on: COLO 205 colon
[54] = tested on: NCI-H522 lung
[55] = tested on: NCI/ADR-RES ovarian
[56] = tested on: OVCAR-3 ovarian
[57] = tested on: OVCAR-4 ovarian
[58] = tested on: UO-31 renal

O=C1C(NCCF)=C(Cl)C(=O)c2ncccc21
TGI [1]: 2.51 µM
TGI [2]: 3.17 µM
TGI [3]: 3.79 µM
TGI [4]: 3.62 µM
TGI [5]: 2.86 µM
TGI [6]: 0.695 µM
TGI [7]: 2.33 µM
TGI [8]: 3.47 µM
TGI [9]: 2.5 µM
TGI [10]: 2.4 µM
TGI [11]: 2.08 µM
TGI [12]: 0.854 µM
TGI [13]: 3.47 µM
TGI [14]: 3.67 µM
TGI [15]: 4.01 µM
TGI [16]: 6.15 µM
TGI [17]: 3.28 µM
TGI [18]: 0.575 µM
TGI [19]: 2.93 µM
TGI [20]: 1.61 µM
TGI [21]: 2.28 µM
TGI [22]: 1.2 µM
TGI [23]: 2.28 µM
TGI [24]: 5.19 µM
TGI [25]: 0.353 µM
TGI [26]: 3.27 µM
TGI [27]: 3.66 µM
TGI [28]: 2.8 µM
TGI [29]: 1.68 µM
TGI [30]: 3.46 µM
TGI [31]: 3.27 µM
TGI [32]: 3.45 µM
TGI [33]: 1.78 µM
TGI [34]: 2.01 µM
TGI [35]: 4.17 µM
TGI [36]: 3.02 µM
TGI [37]: 2.34 µM
TGI [38]: 0.794 µM
TGI [39]: 2 µM
TGI [40]: 0.343 µM
TGI [41]: 3.28 µM
TGI [42]: 2.2 µM
TGI [43]: 2.68 µM
TGI [44]: 1.93 µM
TGI [45]: 5.35 µM
TGI [46]: 2.15 µM
TGI [47]: 5.04 µM
TGI [48]: 3.23 µM
TGI [49]: 2 µM
TGI [50]: 3.23 µM
TGI [51]: 1.25 µM

Oc1c(I)cc(I)cc1CNCCN(Cc1ccccn1)Cc1ccccn1
GI50 [1]: 1.44 µM
TGI [1]: 2.75 µM
GI50 [2]: 1.67 µM
TGI [2]: 3.04 µM
GI50 [3]: 1.24 µM
TGI [3]: 2.91 µM
GI50 [4]: 1.13 µM
TGI [4]: 2.34 µM
GI50 [5]: 1.24 µM
TGI [5]: 2.52 µM
GI50 [52]: 1.32 µM
TGI [52]: 2.68 µM
GI50 [6]: 1.87 µM
TGI [6]: 21.1 µM
GI50 [53]: 1.49 µM
TGI [53]: 3.68 µM
GI50 [7]: 1.07 µM
TGI [7]: 2.27 µM
GI50 [8]: 0.911 µM
TGI [8]: 2.11 µM
GI50 [9]: 1.47 µM
TGI [9]: 2.95 µM
GI50 [10]: 1.28 µM
TGI [10]: 2.61 µM
GI50 [11]: 1.18 µM
TGI [11]: 4.17 µM
GI50 [13]: 0.859 µM
TGI [13]: 2.67 µM
GI50 [14]: 1.54 µM
TGI [14]: 3.07 µM
GI50 [15]: 2.12 µM
TGI [15]: 7.43 µM
GI50 [16]: 2.3 µM
TGI [16]: 5.96 µM
GI50 [17]: 0.83 µM
TGI [17]: 2.98 µM
GI50 [19]: 1.2 µM
TGI [19]: 2.67 µM
GI50 [20]: 1.14 µM
TGI [20]: 2.45 µM
GI50 [21]: 1.45 µM
TGI [21]: 3 µM
GI50 [22]: 1.53 µM
TGI [22]: 3.33 µM
GI50 [23]: 1.21 µM
TGI [23]: 3.19 µM
GI50 [24]: 1.15 µM
TGI [24]: 3.16 µM
GI50 [25]: 1.55 µM
TGI [25]: 3.15 µM
GI50 [27]: 1.07 µM
TGI [27]: 2.75 µM
GI50 [28]: 1.76 µM
TGI [28]: 4.66 µM
GI50 [29]: 0.804 µM
TGI [29]: 2.48 µM
GI50 [54]: 1.37 µM
TGI [54]: 3.34 µM
GI50 [55]: 1.8 µM
TGI [55]: 4.79 µM
GI50 [56]: 1.32 µM
TGI [56]: 2.73 µM
GI50 [57]: 0.896 µM
TGI [57]: 2.23 µM
GI50 [30]: 1.42 µM
TGI [30]: 4.18 µM
GI50 [31]: 2.14 µM
TGI [31]: 8.16 µM
GI50 [32]: 1.16 µM
TGI [32]: 2.92 µM
GI50 [33]: 1.66 µM
TGI [33]: 7.64 µM
GI50 [34]: 1.5 µM
TGI [34]: 2.99 µM
GI50 [35]: 1.01 µM
TGI [35]: 2.4 µM
GI50 [36]: 1.23 µM
TGI [36]: 2.63 µM
GI50 [37]: 1.14 µM
TGI [37]: 2.42 µM
GI50 [38]: 1.74 µM
TGI [38]: 3.8 µM
GI50 [39]: 1.41 µM
TGI [39]: 3.64 µM
GI50 [40]: 1.15 µM
TGI [40]: 2.45 µM
GI50 [41]: 1.21 µM
TGI [41]: 2.58 µM
GI50 [42]: 0.667 µM
TGI [42]: 2.37 µM
GI50 [43]: 0.693 µM
TGI [43]: 2.11 µM
GI50 [44]: 0.544 µM
TGI [44]: 2.06 µM
GI50 [46]: 1.65 µM
TGI [46]: 3.47 µM
GI50 [47]: 1.46 µM
TGI [47]: 2.83 µM
GI50 [48]: 1.26 µM
TGI [48]: 2.54 µM
GI50 [49]: 0.827 µM
TGI [49]: 2.89 µM
GI50 [50]: 1.89 µM
TGI [50]: 4.25 µM
GI50 [51]: 1.49 µM
TGI [51]: 4.21 µM
GI50 [58]: 0.779 µM
TGI [58]: 2.07 µM

O=C(CC(=O)N1N=C(N2c3ccccc3Sc3ccccc32)CC1c1ccccc1)Nc1ccccc1Cl (configuration not stated)
TGI [1]: > 100 µM
TGI [2]: > 100 µM
TGI [3]: > 100 µM
TGI [4]: > 100 µM
TGI [5]: > 100 µM
TGI [52]: > 100 µM
TGI [6]: > 100 µM
TGI [53]: > 100 µM
TGI [7]: > 100 µM
TGI [8]: > 100 µM
TGI [9]: > 100 µM
TGI [10]: > 100 µM
TGI [11]: > 100 µM
TGI [12]: > 100 µM
TGI [13]: > 100 µM
TGI [14]: > 100 µM
TGI [15]: > 100 µM
TGI [16]: > 100 µM
TGI [17]: > 100 µM
TGI [18]: > 100 µM
TGI [19]: > 100 µM
TGI [21]: > 100 µM
TGI [24]: > 100 µM
TGI [25]: > 100 µM
TGI [26]: > 100 µM
TGI [27]: > 100 µM
TGI [28]: > 100 µM
TGI [29]: > 100 µM
TGI [54]: > 100 µM
TGI [55]: > 100 µM
TGI [56]: > 100 µM
TGI [57]: > 100 µM
TGI [30]: > 100 µM
TGI [31]: > 100 µM
TGI [32]: > 100 µM
TGI [33]: > 100 µM
TGI [34]: > 100 µM
TGI [35]: > 100 µM
TGI [36]: > 100 µM
TGI [37]: > 100 µM
TGI [38]: > 100 µM
TGI [39]: > 100 µM
TGI [40]: > 100 µM
TGI [42]: > 100 µM
TGI [43]: > 100 µM
TGI [44]: > 100 µM
TGI [46]: > 100 µM
TGI [47]: > 100 µM
TGI [48]: > 100 µM
TGI [49]: > 100 µM
TGI [50]: > 100 µM
TGI [51]: > 100 µM
TGI [58]: > 100 µM
